Source: PubChem BioAssay AID1918957 (Molecular Pharmacology Branch, DTP, NCI, 2023)

System: NCI-H1876 complex spheroid viability
Assay: Anticancer human tumor NCI-H1876 cell line growth inhibition [LSD1];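 further: spheroids exposed to compounds for one week before readout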;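 on viability, T/C: 100% = DMSO vehicle-treated spheroids so lower means fewer viable cells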
Conditions: for IC50: curve of first compound; for viability, T/C: stronger effect = lower value
Procedure, shortened: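 Complex spheroids of tumor cells with HUVEC and human MSCs, exposed to iadademstat combined with other agents. Each agent tested in half-log steps from near clinical Cmax (else 10 microM top), DMSO ≤0.25%.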

[1] = second compound 0.1 µM, first compound 0.0316 µM
[2] = second compound 0.1 µM, first compound 0.1 µM
[3] = second compound 0.1 µM, first compound 0.316 µM
[4] = second compound 0.1 µM, first compound 1 µM
[5] = second compound 0.1 µM, first compound 3.16 µM
[6] = second compound 0.1 µM, first compound 10 µM
[7] = second compound 0.316 µM, first compound 0.0316 µM
[8] = second compound 0.316 µM, first compound 0.1 µM
[9] = second compound 0.316 µM, first compound 0.316 µM
[10] = second compound 0.316 µM, first compound 1 µM
[11] = second compound 0.316 µM, first compound 3.16 µM
[12] = second compound 0.316 µM, first compound 10 µM
[13] = second compound 1 µM, first compound 0.0316 µM
[14] = second compound 1 µM, first compound 0.1 µM
[15] = second compound 1 µM, first compound 0.316 µM
[16] = second compound 1 µM, first compound 1 µM
[17] = second compound 1 µM, first compound 3.16 µM
[18] = second compound 1 µM, first compound 10 µM
[19] = second compound 3.16 µM, first compound 0.0316 µM
[20] = second compound 3.16 µM, first compound 0.1 µM
[21] = second compound 3.16 µM, first compound 0.316 µM
[22] = second compound 3.16 µM, first compound 1 µM
[23] = second compound 3.16 µM, first compound 3.16 µM
[24] = second compound 3.16 µM, first compound 10 µM
[25] = second compound 10 µM, first compound 0.0316 µM
[26] = second compound 10 µM, first compound 0.1 µM
[27] = second compound 10 µM, first compound 0.316 µM
[28] = second compound 10 µM, first compound 1 µM
[29] = second compound 10 µM, first compound 3.16 µM
[30] = second compound 10 µM, first compound 10 µM
[31] = second compound 0.1 µM, first compound 0.000316 µM
[32] = second compound 0.1 µM, first compound 0.001 µM
[33] = second compound 0.1 µM, first compound 0.00316 µM
[34] = second compound 0.1 µM, first compound 0.01 µM
[35] = second compound 0.316 µM, first compound 0.000316 µM
[36] = second compound 0.316 µM, first compound 0.001 µM
[37] = second compound 0.316 µM, first compound 0.00316 µM
[38] = second compound 0.316 µM, first compound 0.01 µM
[39] = second compound 1 µM, first compound 0.000316 µM
[40] = second compound 1 µM, first compound 0.001 µM
[41] = second compound 1 µM, first compound 0.00316 µM
[42] = second compound 1 µM, first compound 0.01 µM
[43] = second compound 3.16 µM, first compound 0.000316 µM
[44] = second compound 3.16 µM, first compound 0.001 µM
[45] = second compound 3.16 µM, first compound 0.00316 µM
[46] = second compound 3.16 µM, first compound 0.01 µM
[47] = second compound 10 µM, first compound 0.000316 µM
[48] = second compound 10 µM, first compound 0.001 µM
[49] = second compound 10 µM, first compound 0.00316 µM
[50] = second compound 10 µM, first compound 0.01 µM

CC1(C)CCC(CN2CCN(c3ccc(C(=O)NS(=O)(=O)c4ccc(NCC5CCOCC5)c([N+](=O)[O-])c4)c(Oc4cnc5[nH]ccc5c4)c3)CC2)=C(c2ccc(Cl)cc2)C1 + NC1CCC(NC2CC2c2ccccc2)CC1
IC50 (second compound 0.1 µM): 2140 nM
IC50 (second compound 0.316 µM): 2000 nM
IC50 (second compound 1 µM): 2090 nM
IC50 (second compound 3.16 µM): 2060 nM
IC50 (second compound 10 µM): 2010 nM
viability, T/C [1]: 103%
viability, T/C [2]: 98.4%
viability, T/C [3]: 99.3%
viability, T/C [4]: 100%
viability, T/C [5]: 24.5%
viability, T/C [6]: 9.5%
viability, T/C [7]: 104%
viability, T/C [8]: 105%
viability, T/C [9]: 97%
viability, T/C [10]: 89.1%
viability, T/C [11]: 24.3%
viability, T/C [12]: 10.5%
viability, T/C [13]: 92.9%
viability, T/C [14]: 104%
viability, T/C [15]: 102%
viability, T/C [16]: 98.9%
viability, T/C [17]: 22.4%
viability, T/C [18]: 8.48%
viability, T/C [19]: 115%
viability, T/C [20]: 96.2%
viability, T/C [21]: 103%
viability, T/C [22]: 101%
viability, T/C [23]: 19.8%
viability, T/C [24]: 7.55%
viability, T/C [25]: 99.2%
viability, T/C [26]: 110%
viability, T/C [27]: 87.2%
viability, T/C [28]: 90.6%
viability, T/C [29]: 23.6%
viability, T/C [30]: 8%

O=C(c1cc(Cc2n[nH]c(=O)c3ccccc23)ccc1F)N1CCN(C(=O)C2CC2)CC1 + NC1CC1c1ccc(-c2cccc(O)c2)cc1
IC50 (second compound 0.1 µM): 6190 nM
IC50 (second compound 0.316 µM): 6210 nM
IC50 (second compound 1 µM): 6350 nM
IC50 (second compound 3.16 µM): 6410 nM
IC50 (second compound 10 µM): 6490 nM
viability, T/C [1]: 101%
viability, T/C [2]: 99.9%
viability, T/C [3]: 98.2%
viability, T/C [4]: 90.3%
viability, T/C [5]: 68.3%
viability, T/C [6]: 36.9%
viability, T/C [7]: 103%
viability, T/C [8]: 94.9%
viability, T/C [9]: 97.7%
viability, T/C [10]: 88.3%
viability, T/C [11]: 66.8%
viability, T/C [12]: 38%
viability, T/C [13]: 106%
viability, T/C [14]: 99.5%
viability, T/C [15]: 98.3%
viability, T/C [16]: 88.2%
viability, T/C [17]: 70.2%
viability, T/C [18]: 36.7%
viability, T/C [19]: 102%
viability, T/C [20]: 96.9%
viability, T/C [21]: 101%
viability, T/C [22]: 88.4%
viability, T/C [23]: 72%
viability, T/C [24]: 36.3%
viability, T/C [25]: 99.5%
viability, T/C [26]: 94.1%
viability, T/C [27]: 93.2%
viability, T/C [28]: 82%
viability, T/C [29]: 69.7%
viability, T/C [30]: 38.6%

Cn1ncnc1C1c2n[nH]c(=O)c3cc(F)cc(c23)NC1c1ccc(F)cc1 (stereo not given) + NC1CCC(NC2CC2c2ccccc2)CC1
IC50 (second compound 0.1 µM): > 100 nM
IC50 (second compound 0.316 µM): > 100 nM
IC50 (second compound 1 µM): > 100 nM
IC50 (second compound 3.16 µM): > 100 nM
IC50 (second compound 10 µM): > 100 nM
viability, T/C [31]: 99.3%
viability, T/C [32]: 107%
viability, T/C [33]: 96.6%
viability, T/C [34]: 98.3%
viability, T/C [1]: 91.7%
viability, T/C [2]: 92%
viability, T/C [35]: 98%
viability, T/C [36]: 114%
viability, T/C [37]: 97.3%
viability, T/C [38]: 103%
viability, T/C [7]: 104%
viability, T/C [8]: 82.8%
viability, T/C [39]: 107%
viability, T/C [40]: 102%
viability, T/C [41]: 102%
viability, T/C [42]: 98%
viability, T/C [13]: 95.8%
viability, T/C [14]: 87.9%
viability, T/C [43]: 115%
viability, T/C [44]: 117%
viability, T/C [45]: 104%
viability, T/C [46]: 100%
viability, T/C [19]: 88.1%
viability, T/C [20]: 104%
viability, T/C [47]: 104%
viability, T/C [48]: 130%
viability, T/C [49]: 114%
viability, T/C [50]: 95%
viability, T/C [25]: 100%
viability, T/C [26]: 89.7%

CC(C)CC(NC(=O)CNC(=O)c1cc(Cl)ccc1Cl)B1OC(=O)CC(CC(=O)O)(C(=O)O)O1 (stereo not given) + NC1CCC(NC2CC2c2ccccc2)CC1
IC50 (second compound 0.1 µM): 9.07 nM
IC50 (second compound 0.316 µM): 8.75 nM
IC50 (second compound 1 µM): 7.91 nM
IC50 (second compound 3.16 µM): 7.93 nM
IC50 (second compound 10 µM): 7.52 nM
viability, T/C [31]: 94.5%
viability, T/C [32]: 109%
viability, T/C [33]: 104%
viability, T/C [34]: 45.1%
viability, T/C [1]: 8.77%
viability, T/C [2]: 0.58%
viability, T/C [35]: 98.2%
viability, T/C [36]: 108%
viability, T/C [37]: 104%
viability, T/C [38]: 43%
viability, T/C [7]: 7.91%
viability, T/C [8]: 17.4%
viability, T/C [39]: 99.3%
viability, T/C [40]: 97.2%
viability, T/C [41]: 96.2%
viability, T/C [42]: 38.2%
viability, T/C [13]: 9.23%
viability, T/C [14]: 7.49%
viability, T/C [43]: 105%
viability, T/C [44]: 112%
viability, T/C [45]: 99%
viability, T/C [46]: 36.5%
viability, T/C [19]: 18.1%
viability, T/C [20]: 0.81%
viability, T/C [47]: 99%
viability, T/C [48]: 104%
viability, T/C [49]: 93.9%
viability, T/C [50]: 35.5%
viability, T/C [25]: 15.6%
viability, T/C [26]: 13.8%

O=C(C=Cn1cnc(-c2cc(C(F)(F)F)cc(C(F)(F)F)c2)n1)NNc1cnccn1 + NC1CC1c1ccc(-c2cccc(O)c2)cc1
IC50 (second compound 0.1 µM): 78 nM
IC50 (second compound 0.316 µM): 78.6 nM
IC50 (second compound 1 µM): 83 nM
IC50 (second compound 3.16 µM): 86 nM
IC50 (second compound 10 µM): 109 nM
viability, T/C [33]: 96.7%
viability, T/C [34]: 97.2%
viability, T/C [1]: 77.9%
viability, T/C [2]: 42.8%
viability, T/C [3]: 16.4%
viability, T/C [4]: 11.7%
viability, T/C [37]: 105%
viability, T/C [38]: 104%
viability, T/C [7]: 81.8%
viability, T/C [8]: 42%
viability, T/C [9]: 16.4%
viability, T/C [10]: 11.3%
viability, T/C [41]: 97.5%
viability, T/C [42]: 103%
viability, T/C [13]: 83.1%
viability, T/C [14]: 44.1%
viability, T/C [15]: 16.7%
viability, T/C [16]: 12.9%
viability, T/C [45]: 97.1%
viability, T/C [46]: 99.5%
viability, T/C [19]: 78.7%
viability, T/C [20]: 46.9%
viability, T/C [21]: 18.2%
viability, T/C [22]: 14.1%
viability, T/C [49]: 96%
viability, T/C [50]: 92.4%
viability, T/C [25]: 81.1%
viability, T/C [26]: 53.5%
viability, T/C [27]: 22.8%
viability, T/C [28]: 18.4%

COc1cc(Nc2ncc3c(n2)-c2ccc(Cl)cc2C(c2c(F)cccc2OC)=NC3)ccc1C(=O)O + NC1CC1c1ccc(-c2cccc(O)c2)cc1
IC50 (second compound 0.1 µM): 28.5 nM
IC50 (second compound 0.316 µM): 37 nM
IC50 (second compound 1 µM): 35.9 nM
IC50 (second compound 3.16 µM): 30.1 nM
IC50 (second compound 10 µM): 41.2 nM
viability, T/C [33]: 69.2%
viability, T/C [34]: 61.6%
viability, T/C [1]: 48.2%
viability, T/C [2]: 35.7%
viability, T/C [3]: 30.2%
viability, T/C [4]: 16.3%
viability, T/C [37]: 64.9%
viability, T/C [38]: 64.5%
viability, T/C [7]: 50.2%
viability, T/C [8]: 37.5%
viability, T/C [9]: 26%
viability, T/C [10]: 15.8%
viability, T/C [41]: 78.4%
viability, T/C [42]: 62.1%
viability, T/C [13]: 51.5%
viability, T/C [14]: 40.5%
viability, T/C [15]: 27.1%
viability, T/C [16]: 16.2%
viability, T/C [45]: 65.9%
viability, T/C [46]: 58.4%
viability, T/C [19]: 49.8%
viability, T/C [20]: 38.5%
viability, T/C [21]: 27.9%
viability, T/C [22]: 15%
viability, T/C [49]: 64.3%
viability, T/C [50]: 62.1%
viability, T/C [25]: 53.1%
viability, T/C [26]: 38.7%
viability, T/C [27]: 31.1%
viability, T/C [28]: 17.2%
